# Measured values taken from the supplement of paper PMC10307832.
# Assays:
# Test in all cases: relative viability (nuclei count vs DMSO), 5 days (fraction); higher = more cells survive
# [1] = compound: COc1cc2/c(=N/c3ccc(Br)cc3F)nc[nH]c2cc1OCC1CCN(C)CC1 [Vandetanib] + CS(=O)(=O)N1CCN(Cc2cc3nc(-c4cccc5[nH]ncc45)nc(N4CCOCC4)c3s2)CC1 [Pictilisib] (partner 1 µM)
# Summary of the method: (§1)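 Values are medians from duplicate plates. Each reflects relative viability, defined as the nuclei count of treated wells over that of vehicle wells. Lung cancer cell lines in 1536-well plates were pin-tool dosed one day after seeding with one drug alone or with a fixed anchor-drug dose plus five library-drug doses (not always all listed) in √10 steps, then fixed, stained and imaged at 4× after 5 days.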
# [2] = compound: C#Cc1cccc(Nc2ncnc3cc(OC)c(OCCCCCCC(=O)NO)cc23)c1 [CUDC-101] + C[C@@H](Oc1cc(-c2cnn(C3CCNCC3)c2)cnc1N)c1c(Cl)ccc(F)c1Cl [Crizotinib] (partner 1 µM)
# Summary of the method: as §1
# [3] = compound: C#Cc1cccc(Nc2ncnc3cc(OC)c(OCCCCCCC(=O)NO)cc23)c1 [CUDC-101] + Cc1nc(Nc2ncc(C(=O)Nc3c(C)cccc3Cl)s2)cc(N2CCN(CCO)CC2)n1 [Dasatinib] (partner 0.075 µM)
# Summary of the method: as §1
# [4] = compound: C#Cc1cccc(Nc2ncnc3cc(OC)c(OCCCCCCC(=O)NO)cc23)c1 [CUDC-101] + Cc1nc(NC(=O)N2CCC[C@H]2C(N)=O)sc1-c1ccnc(C(C)(C)C(F)(F)F)c1 [Alpelisib] (partner 2 µM)
# Summary of the method: as §1
cell line,measurement,setting,value
COR-L23,relative viability,[1]; first compound 0.02 µM,0.709
same,relative viability,[1]; first compound 0.06325 µM,0.643
same,relative viability,[1]; first compound 0.2 µM,0.989
same,relative viability,[1]; first compound 0.6325 µM,0.813
same,relative viability,[1]; first compound 2 µM,0.78
same,relative viability,[2]; first compound 0.01 µM,0.677
same,relative viability,[2]; first compound 0.03162 µM,0.674
same,relative viability,[2]; first compound 0.1 µM,0.626
same,relative viability,[2]; first compound 0.3162 µM,0.555
same,relative viability,[2]; first compound 1 µM,0.295
same,relative viability,[3]; first compound 0.01 µM,0.578
same,relative viability,[3]; first compound 0.03162 µM,0.485
same,relative viability,[3]; first compound 0.1 µM,0.477
same,relative viability,[3]; first compound 0.3162 µM,0.499
same,relative viability,[3]; first compound 1 µM,0.177
same,relative viability,[4]; first compound 0.01 µM,0.968
same,relative viability,[4]; first compound 0.03162 µM,0.753
same,relative viability,[4]; first compound 0.1 µM,0.661
same,relative viability,[4]; first compound 0.3162 µM,0.617
same,relative viability,[4]; first compound 1 µM,0.349
COR-L 105,relative viability,[1]; first compound 0.02 µM,0.408
same,relative viability,[1]; first compound 0.06325 µM,0.405
same,relative viability,[1]; first compound 0.2 µM,0.412
same,relative viability,[1]; first compound 0.6325 µM,0.344
same,relative viability,[1]; first compound 2 µM,0.335
same,relative viability,[2]; first compound 0.01 µM,0.724
same,relative viability,[2]; first compound 0.03162 µM,0.825
same,relative viability,[2]; first compound 0.1 µM,0.725
same,relative viability,[2]; first compound 0.3162 µM,0.433
same,relative viability,[2]; first compound 1 µM,0.267
same,relative viability,[3]; first compound 0.01 µM,0.337
same,relative viability,[3]; first compound 0.03162 µM,0.382
same,relative viability,[3]; first compound 0.1 µM,0.277
same,relative viability,[3]; first compound 0.3162 µM,0.418
same,relative viability,[3]; first compound 1 µM,0.122
same,relative viability,[4]; first compound 0.01 µM,1.17
same,relative viability,[4]; first compound 0.03162 µM,0.848
same,relative viability,[4]; first compound 0.1 µM,0.88
same,relative viability,[4]; first compound 0.3162 µM,0.829
same,relative viability,[4]; first compound 1 µM,0.52
EKVX,relative viability,[1]; first compound 0.02 µM,0.404
same,relative viability,[1]; first compound 0.06325 µM,0.396
same,relative viability,[1]; first compound 0.2 µM,0.404
same,relative viability,[1]; first compound 0.6325 µM,0.363
same,relative viability,[1]; first compound 2 µM,0.213
same,relative viability,[2]; first compound 0.01 µM,0.977
same,relative viability,[2]; first compound 0.03162 µM,0.892
same,relative viability,[2]; first compound 0.1 µM,0.964
same,relative viability,[2]; first compound 0.3162 µM,1.07
same,relative viability,[2]; first compound 1 µM,0.604
same,relative viability,[3]; first compound 0.01 µM,0.374
same,relative viability,[3]; first compound 0.03162 µM,0.499
same,relative viability,[3]; first compound 0.1 µM,0.571
same,relative viability,[3]; first compound 0.3162 µM,0.439
same,relative viability,[3]; first compound 1 µM,0.362
same,relative viability,[4]; first compound 0.01 µM,0.833
same,relative viability,[4]; first compound 0.03162 µM,0.817
same,relative viability,[4]; first compound 0.1 µM,0.849
same,relative viability,[4]; first compound 0.3162 µM,1.03
same,relative viability,[4]; first compound 1 µM,0.682
EMC-BAC-2,relative viability,[1]; first compound 0.02 µM,0.556
same,relative viability,[1]; first compound 0.06325 µM,0.51
same,relative viability,[1]; first compound 0.2 µM,0.358
same,relative viability,[1]; first compound 0.6325 µM,0.484
same,relative viability,[1]; first compound 2 µM,0.538
same,relative viability,[2]; first compound 0.01 µM,0.726
same,relative viability,[2]; first compound 0.03162 µM,0.76
same,relative viability,[2]; first compound 0.1 µM,0.732
same,relative viability,[2]; first compound 0.3162 µM,0.571
same,relative viability,[2]; first compound 1 µM,0.388
same,relative viability,[3]; first compound 0.01 µM,0.359
same,relative viability,[3]; first compound 0.03162 µM,0.324
same,relative viability,[3]; first compound 0.1 µM,0.35
same,relative viability,[3]; first compound 0.3162 µM,0.262
same,relative viability,[3]; first compound 1 µM,0.149
same,relative viability,[4]; first compound 0.01 µM,0.759
same,relative viability,[4]; first compound 0.03162 µM,0.737
same,relative viability,[4]; first compound 0.1 µM,0.757
same,relative viability,[4]; first compound 0.3162 µM,0.741
same,relative viability,[4]; first compound 1 µM,0.499
EPLC-272H,relative viability,[1]; first compound 0.02 µM,0.363
same,relative viability,[1]; first compound 0.06325 µM,0.311
same,relative viability,[1]; first compound 0.2 µM,0.121
same,relative viability,[1]; first compound 0.6325 µM,0.355
same,relative viability,[1]; first compound 2 µM,0.166
same,relative viability,[2]; first compound 0.01 µM,0.904
same,relative viability,[2]; first compound 0.03162 µM,0.904
same,relative viability,[2]; first compound 0.1 µM,0.86
same,relative viability,[2]; first compound 0.3162 µM,0.751
same,relative viability,[2]; first compound 1 µM,0.582
same,relative viability,[3]; first compound 0.01 µM,0.448
same,relative viability,[3]; first compound 0.03162 µM,0.364
same,relative viability,[3]; first compound 0.1 µM,0.316
same,relative viability,[3]; first compound 0.3162 µM,0.357
same,relative viability,[3]; first compound 1 µM,0.183
same,relative viability,[4]; first compound 0.01 µM,0.985
same,relative viability,[4]; first compound 0.03162 µM,0.887
same,relative viability,[4]; first compound 0.1 µM,0.92
same,relative viability,[4]; first compound 0.3162 µM,0.926
same,relative viability,[4]; first compound 1 µM,0.845
H3255,relative viability,[1]; first compound 0.02 µM,0.469
same,relative viability,[1]; first compound 0.06325 µM,0.392
same,relative viability,[1]; first compound 0.2 µM,0.386
same,relative viability,[1]; first compound 0.6325 µM,0.263
same,relative viability,[1]; first compound 2 µM,0.126
same,relative viability,[2]; first compound 0.01 µM,0.76
same,relative viability,[2]; first compound 0.03162 µM,0.845
same,relative viability,[2]; first compound 0.1 µM,0.387
same,relative viability,[2]; first compound 0.3162 µM,0.621
same,relative viability,[2]; first compound 1 µM,0.269
same,relative viability,[3]; first compound 0.01 µM,0.429
same,relative viability,[3]; first compound 0.03162 µM,0.373
same,relative viability,[3]; first compound 0.3162 µM,0.298
same,relative viability,[3]; first compound 1 µM,0.171
same,relative viability,[4]; first compound 0.01 µM,0.71
same,relative viability,[4]; first compound 0.03162 µM,0.552
same,relative viability,[4]; first compound 0.1 µM,0.177
same,relative viability,[4]; first compound 0.3162 µM,0.375
same,relative viability,[4]; first compound 1 µM,0.136
HARA,relative viability,[1]; first compound 0.02 µM,0.385
same,relative viability,[1]; first compound 0.06325 µM,0.248
same,relative viability,[1]; first compound 0.2 µM,0.337
same,relative viability,[1]; first compound 0.6325 µM,0.369
same,relative viability,[1]; first compound 2 µM,0.392
same,relative viability,[2]; first compound 0.01 µM,0.904
same,relative viability,[2]; first compound 0.03162 µM,0.866
same,relative viability,[2]; first compound 0.1 µM,0.89
same,relative viability,[2]; first compound 0.3162 µM,0.799
same,relative viability,[2]; first compound 1 µM,0.395
same,relative viability,[3]; first compound 0.01 µM,0.246
same,relative viability,[3]; first compound 0.03162 µM,0.311
same,relative viability,[3]; first compound 0.1 µM,0.271
same,relative viability,[3]; first compound 0.3162 µM,0.282
same,relative viability,[3]; first compound 1 µM,0.229
same,relative viability,[4]; first compound 0.01 µM,0.752
same,relative viability,[4]; first compound 0.03162 µM,0.661
same,relative viability,[4]; first compound 0.1 µM,0.583
same,relative viability,[4]; first compound 0.3162 µM,0.54
same,relative viability,[4]; first compound 1 µM,0.225
HCC-15,relative viability,[1]; first compound 0.02 µM,0.795
same,relative viability,[1]; first compound 0.06325 µM,0.678
same,relative viability,[1]; first compound 0.2 µM,0.696
same,relative viability,[1]; first compound 0.6325 µM,0.767
same,relative viability,[1]; first compound 2 µM,0.796
same,relative viability,[2]; first compound 0.01 µM,0.804
same,relative viability,[2]; first compound 0.03162 µM,0.836
same,relative viability,[2]; first compound 0.1 µM,0.798
same,relative viability,[2]; first compound 0.3162 µM,0.843
same,relative viability,[2]; first compound 1 µM,0.715
same,relative viability,[3]; first compound 0.01 µM,0.641
same,relative viability,[3]; first compound 0.03162 µM,0.622
same,relative viability,[3]; first compound 0.1 µM,0.628
same,relative viability,[3]; first compound 0.3162 µM,0.672
same,relative viability,[3]; first compound 1 µM,0.473
same,relative viability,[4]; first compound 0.01 µM,0.875
same,relative viability,[4]; first compound 0.03162 µM,0.888
same,relative viability,[4]; first compound 0.1 µM,0.909
same,relative viability,[4]; first compound 0.3162 µM,0.909
same,relative viability,[4]; first compound 1 µM,0.763
